Several values for one entry are separate records, joined by “and”; a condition that tells them apart may be missing. Equal entries are not always repeated. Where two headings read alike, the source gives them in different places.
Legend:
[1] = Zinc complexation/precipitation of GLP-1 molecules, protein content of supernatant by 280 nm absorbance (Example 1); assay type: physicochemical; conditions: 0.1M HEPES pH 7.4, about 0.1 mg/mL, 22° C., about 18 hours
Procedure: Individual aliquots of 5 different GLP-1 molecules were prepared by well-known, solid phase peptide synthesis and were lyophilized in small vials. Portions of 0.1M HEPES (N-[2-hydroxyethyl]piperazine-N′-[2-ethanesulfonic acid]) buffers at pH 7.4 containing various levels of zinc chloride were added to the aliquots to obtain a protein concentration of about 0.1 mg/mL. The samples were mixed and stored at ambient temperature (22° C.) for about 18 hours. The mixtures were then centrifuged (Fisher Model 235C micro-centrifuge) for 5 minutes. The clear supernatants were pipetted from the tubes. The protein content of the supernatants was estimated by measuring their absorbance at 280 nm in a spectrophotometer (Gilford 260). The theoretical absorbance value for a 0.1 mg/mL solution of the GLP-1 molecules at this wavelength in the 1 cm cuvettes is 0.207.

[2] = Zinc precipitation of GLP-1 (7-36)NH2, 280 nm absorbance and zinc by atomic absorption in supernatant and redissolved precipitate (Example 2); assay type: physicochemical
Procedure: 5 mg of GLP-1 (7-36)NH2 was completely dissolved in 2.5 ML of pH 7.4, zinc-free 0.1M HEPES buffer. An additional 2.5 mL of pH 7.4, 0.1M HEPES buffer containing 0.6 mM zinc chloride was quickly added. The approximate molar ratio of zinc to GLP-1 (7-36)NH2 in this sample is 1 to 1. The solution immediately became cloudy and precipitation soon formed. The mixture was stored at ambient temperature (22° C.) for 18 hours.
The precipitate became firmly attached to the bottom of the glass vial. The supernatant was completely decanted by pipette. The precipitate was then completely dissolved in 5.0 mL of 0.1N hydrochloric acid. The absorbance at 280 nm was determined for both the supernatant and redissolved precipitate solutions. The zinc levels in these solutions were quantitated by atomic absorption spectrophotometry.

[3] = intravenous infusion, cited from earlier work
[4] = stored at 4° C.; cited from earlier work
[5] = Zn/GLP-1 molecule molar ratio 0, theoretical absorbance 0.207
[6] = Zn/GLP-1 molecule molar ratio 0.3
[7] = Zn/GLP-1 molecule molar ratio 0.5
[8] = Zn/GLP-1 molecule molar ratio 0.7
[9] = Zn/GLP-1 molecule molar ratio 1.0
[10] = Zn/GLP-1 molecule molar ratio 3.0
[11] = Patients With Maturity Onset Diabetes

Substance | 280 nm Absorbance of supernatant [1, 5] | 280 nm Absorbance of supernatant [1, 6] | 280 nm Absorbance of supernatant [1, 7] | 280 nm Absorbance of supernatant [1, 8] | 280 nm Absorbance of supernatant [1, 9] | 280 nm Absorbance of supernatant [1, 10] | also measured
His^7-Ala-Glu-Gly^10-Thr-Phe-Thr-Ser-Asp15-Val-Ser-Ser-Tyr-Leu^20-Glu-Gly-Gln-Ala-Ala^25-Lys-Glu-Phe-Ile-Ala^30-Trp-Leu-Val-Lys-Gly^35-Arg-NH2 [GLP-1 (7-36)NH2] | 0.172 | 0.099 | 0.057 | 0.035 | 0.039 | 0.048 | Zinc Concentration in Parts per Million ([2]; Redissolved Precipitate (5 ml)): 13.3 Parts per Million; 280 nm Absorbance ([2]; Redissolved Precipitate (5 ml) in 0.1N hydrochloric acid): 1.932; Zinc Concentration in Parts per Million ([2]; Supernatant (5 ml)): 9.02 Parts per Million; 280 nm Absorbance ([2]; Supernatant (5 ml), zinc to peptide about 1 to 1, pH 7.4 HEPES, 22° C., 18 hours): 0.118; zinc concentration of the redissolved precipitate solution ([2]; equivalent of 13.3 parts per million): 203 µM; GLP-1 (7-36)NH2 concentration of the redissolved precipitate ([2]; from 280 nm absorbance 1.932): 0.933 mg/ml and 283 μM; molar ratio of zinc to GLP-1 (7-36)NH2 in the precipitate ([2]; ratio to 1): 0.717; precipitation from the solution when zinc-containing HEPES solution was added ([2]; zinc to peptide about 1 to 1, pH 7.4): most of the GLP-1 (7-36)NH2 precipitated from the solution; Meal glycemia ([3]; Normal Subjects, twice normal serum concentrations): Unchanged; Endogenous insulin secretion in response to a meal ([3]; Normal Subjects): Unchanged; Free fatty acids ([3]; Normal Subjects): Reduced (3); Endogenous insulin secretion in response to a meal [3, 11]: Increased; Fasting glucagon [3, 11]: Reduced; Fasting glycemia [3, 11]: Reduced; Free fatty acids [3, 11]: Reduced (2); Meal glycemia [3, 11]: Reduced; Post-prandial glucagon [3, 11]: Reduced
α-methly-Ala^8-GLP-1(7-36)NH2 [α-methyl-Ala^8-GLP-1 (7-36)NH2] | 0.163 | 0.134 | 0.098 | 0.079 | 0.076 | 0.055 | –
Gly^8-GLP-1(7-36)NH2 [Gly^8-GLP-1 (7-36)NH2] | 0.136 | 0.079 | 0.070 | 0.058 | 0.057 | 0.044 | –
Gly^8-Gln^21-GLP-1(7-37)OH [Gly^8-Gln^21 GLP-1 (7-37)OH] | 0.167 | 0.113 | 0.082 | 0.069 | 0.065 | 0.055 | –
GLP-1 (7-37) | – | – | – | – | – | – | Time after sample preparation at which by-products were found [4]: eleven
Val^8-GLP-1(7-37) OH [Val^8-GLP-1 (7-37)OH] | 0.187 | 0.191 | 0.184 | 0.180 | 0.173 | 0.110 | –

Source: patent US6703365B2, “Glucagon-like insulinotropic peptides, compositions and methods” (Eli Lilly and Company, priority 1993, dated 2004)
